Like-named read-outs stand apart in the source and are kept apart here.
Tests used:
[1] = biological target: human full length PIK3CA Wild-type (p110α/p85α complex) (Homo sapiens (Human), UniProt P42336); assay: PI3K-Alpha kinase (PIK3CA) activity, wild-type, Transcreener ADP2 FI assay; conditions: PI3K-α (PIK3CA) wild-type, biochemical
How it was run: (§1)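 Recombinant full-length p110α/p85α (1-5 nM, wild-type or H1047R) preincubated with compound 1 h at 27° C, then reacted with 25 uM ATP and 50 uM PIP2diC8 or membrane PIP2:PS in pH 7.4 HEPES, 25 mM MgCl2, 5% DMSO (also pH 6.0/6.4 MOPS). Run to ~2.5 uM ADP; Transcreener ADP2 fluorescence converted via ADP calibration for IC50.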

T-47D = assay: Cellular Assay T-47D; format: cell-based; conditions: Homo sapiens, T47D; T-47D cells
[2] = biological target: human full length PIK3CA H1047R mutant (p110α/p85α complex) (Homo sapiens (Human), UniProt P42336, H1047R); assay: PI3K-Alpha kinase (PIK3CA) activity, H1047R mutant, Transcreener ADP2 FI assay; conditions: PI3K-α (PIK3CA) H1047R mutant, biochemical
Sequence of human full length PIK3CA H1047R mutant (p110α/p85α complex) (P42336 whole entry H1047R): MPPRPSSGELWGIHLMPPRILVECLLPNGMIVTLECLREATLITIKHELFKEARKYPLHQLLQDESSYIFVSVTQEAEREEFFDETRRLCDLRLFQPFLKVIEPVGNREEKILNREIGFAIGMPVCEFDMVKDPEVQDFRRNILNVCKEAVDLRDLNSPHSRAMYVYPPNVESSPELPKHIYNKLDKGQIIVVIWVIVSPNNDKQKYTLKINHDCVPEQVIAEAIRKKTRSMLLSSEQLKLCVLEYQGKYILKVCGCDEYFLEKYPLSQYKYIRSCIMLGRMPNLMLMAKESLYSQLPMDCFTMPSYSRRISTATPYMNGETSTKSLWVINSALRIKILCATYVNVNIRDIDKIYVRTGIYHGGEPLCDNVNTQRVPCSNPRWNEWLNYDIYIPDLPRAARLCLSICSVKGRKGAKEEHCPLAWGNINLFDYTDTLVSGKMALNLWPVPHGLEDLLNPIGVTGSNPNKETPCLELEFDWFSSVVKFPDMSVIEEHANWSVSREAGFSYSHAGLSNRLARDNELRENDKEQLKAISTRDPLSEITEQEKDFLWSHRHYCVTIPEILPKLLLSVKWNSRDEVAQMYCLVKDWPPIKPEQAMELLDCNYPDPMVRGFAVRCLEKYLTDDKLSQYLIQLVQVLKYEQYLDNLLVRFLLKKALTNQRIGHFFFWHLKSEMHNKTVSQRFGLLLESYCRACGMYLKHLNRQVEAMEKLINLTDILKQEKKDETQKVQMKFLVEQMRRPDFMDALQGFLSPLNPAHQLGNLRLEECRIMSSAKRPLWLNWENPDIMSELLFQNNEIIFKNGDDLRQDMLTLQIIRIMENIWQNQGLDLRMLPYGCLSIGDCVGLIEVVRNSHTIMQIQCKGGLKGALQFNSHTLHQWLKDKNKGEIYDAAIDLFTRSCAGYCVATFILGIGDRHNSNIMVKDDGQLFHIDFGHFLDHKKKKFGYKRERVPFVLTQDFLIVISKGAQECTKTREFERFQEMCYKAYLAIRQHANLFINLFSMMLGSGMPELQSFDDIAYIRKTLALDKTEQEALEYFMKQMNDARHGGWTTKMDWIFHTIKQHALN
Sequence of human full length PIK3CA H1047R mutant (p110α/p85α complex) (P27986 whole entry partner): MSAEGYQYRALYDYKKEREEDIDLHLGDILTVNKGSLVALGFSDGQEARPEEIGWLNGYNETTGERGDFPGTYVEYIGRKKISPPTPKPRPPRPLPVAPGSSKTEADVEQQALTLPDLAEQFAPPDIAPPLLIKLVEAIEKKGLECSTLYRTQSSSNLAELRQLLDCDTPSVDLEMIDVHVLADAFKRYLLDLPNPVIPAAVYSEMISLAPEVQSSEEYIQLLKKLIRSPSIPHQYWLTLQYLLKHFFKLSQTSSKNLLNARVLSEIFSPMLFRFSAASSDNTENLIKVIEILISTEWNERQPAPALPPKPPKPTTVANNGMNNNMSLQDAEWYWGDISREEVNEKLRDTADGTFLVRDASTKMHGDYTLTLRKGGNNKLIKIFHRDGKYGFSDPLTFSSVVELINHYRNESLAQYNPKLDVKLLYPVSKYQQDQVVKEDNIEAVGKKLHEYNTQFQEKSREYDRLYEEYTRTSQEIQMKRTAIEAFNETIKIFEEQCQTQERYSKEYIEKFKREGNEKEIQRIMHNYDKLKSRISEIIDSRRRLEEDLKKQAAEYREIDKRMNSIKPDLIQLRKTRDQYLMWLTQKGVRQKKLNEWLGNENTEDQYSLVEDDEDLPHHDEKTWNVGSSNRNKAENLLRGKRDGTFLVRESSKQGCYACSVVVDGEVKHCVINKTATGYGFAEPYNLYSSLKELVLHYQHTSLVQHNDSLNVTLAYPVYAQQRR
How it was run: as §1

DNA-PK = DNA-PK (Homo sapiens (Human), UniProt P78527); assay: Selectivity against selected lipid kinases: DNA-PK; format: biochemical
PI3K-D = PI3K-D (Homo sapiens (Human), UniProt O00329); assay: Selectivity against selected lipid kinases: PI3K-D; format: biochemical
PI3K-G = PI3K-G (Homo sapiens (Human), UniProt P48736); assay: Selectivity against selected lipid kinases: PI3K-G; format: biochemical
Sequence of PI3K-G (P48736 whole entry): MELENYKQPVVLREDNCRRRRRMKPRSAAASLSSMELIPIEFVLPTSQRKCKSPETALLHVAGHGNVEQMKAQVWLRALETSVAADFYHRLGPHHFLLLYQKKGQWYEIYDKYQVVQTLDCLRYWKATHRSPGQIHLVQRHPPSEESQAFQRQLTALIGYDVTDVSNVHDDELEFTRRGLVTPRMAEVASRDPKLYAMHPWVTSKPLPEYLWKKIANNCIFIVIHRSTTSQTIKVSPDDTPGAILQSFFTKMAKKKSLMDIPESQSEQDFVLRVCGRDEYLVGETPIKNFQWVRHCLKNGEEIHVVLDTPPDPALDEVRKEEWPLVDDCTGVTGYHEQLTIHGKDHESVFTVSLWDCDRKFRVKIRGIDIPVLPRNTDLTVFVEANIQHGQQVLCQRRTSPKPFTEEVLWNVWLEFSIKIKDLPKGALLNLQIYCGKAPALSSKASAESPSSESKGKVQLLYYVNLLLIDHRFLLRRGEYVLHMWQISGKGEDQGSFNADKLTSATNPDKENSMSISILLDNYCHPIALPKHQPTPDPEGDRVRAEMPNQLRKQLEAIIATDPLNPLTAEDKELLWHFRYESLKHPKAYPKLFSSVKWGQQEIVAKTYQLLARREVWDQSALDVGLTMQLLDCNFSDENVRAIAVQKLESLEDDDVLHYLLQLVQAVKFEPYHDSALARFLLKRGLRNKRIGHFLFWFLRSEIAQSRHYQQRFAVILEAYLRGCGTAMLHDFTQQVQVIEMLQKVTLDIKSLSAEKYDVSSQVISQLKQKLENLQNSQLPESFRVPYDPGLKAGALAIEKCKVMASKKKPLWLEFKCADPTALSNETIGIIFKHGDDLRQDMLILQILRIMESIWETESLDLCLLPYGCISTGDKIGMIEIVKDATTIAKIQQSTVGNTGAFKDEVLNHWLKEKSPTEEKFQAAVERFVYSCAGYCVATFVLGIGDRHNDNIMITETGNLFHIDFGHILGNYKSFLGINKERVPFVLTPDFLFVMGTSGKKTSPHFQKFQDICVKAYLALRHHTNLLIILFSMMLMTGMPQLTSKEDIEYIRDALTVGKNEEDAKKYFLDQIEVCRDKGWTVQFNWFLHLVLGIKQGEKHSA

Vps34 = Vps34 (Homo sapiens (Human), UniProt Q8NEB9); assay: Selectivity against selected lipid kinases: Vps34; format: biochemical
Sequence of Vps34 (Q8NEB9 whole entry, species assumed): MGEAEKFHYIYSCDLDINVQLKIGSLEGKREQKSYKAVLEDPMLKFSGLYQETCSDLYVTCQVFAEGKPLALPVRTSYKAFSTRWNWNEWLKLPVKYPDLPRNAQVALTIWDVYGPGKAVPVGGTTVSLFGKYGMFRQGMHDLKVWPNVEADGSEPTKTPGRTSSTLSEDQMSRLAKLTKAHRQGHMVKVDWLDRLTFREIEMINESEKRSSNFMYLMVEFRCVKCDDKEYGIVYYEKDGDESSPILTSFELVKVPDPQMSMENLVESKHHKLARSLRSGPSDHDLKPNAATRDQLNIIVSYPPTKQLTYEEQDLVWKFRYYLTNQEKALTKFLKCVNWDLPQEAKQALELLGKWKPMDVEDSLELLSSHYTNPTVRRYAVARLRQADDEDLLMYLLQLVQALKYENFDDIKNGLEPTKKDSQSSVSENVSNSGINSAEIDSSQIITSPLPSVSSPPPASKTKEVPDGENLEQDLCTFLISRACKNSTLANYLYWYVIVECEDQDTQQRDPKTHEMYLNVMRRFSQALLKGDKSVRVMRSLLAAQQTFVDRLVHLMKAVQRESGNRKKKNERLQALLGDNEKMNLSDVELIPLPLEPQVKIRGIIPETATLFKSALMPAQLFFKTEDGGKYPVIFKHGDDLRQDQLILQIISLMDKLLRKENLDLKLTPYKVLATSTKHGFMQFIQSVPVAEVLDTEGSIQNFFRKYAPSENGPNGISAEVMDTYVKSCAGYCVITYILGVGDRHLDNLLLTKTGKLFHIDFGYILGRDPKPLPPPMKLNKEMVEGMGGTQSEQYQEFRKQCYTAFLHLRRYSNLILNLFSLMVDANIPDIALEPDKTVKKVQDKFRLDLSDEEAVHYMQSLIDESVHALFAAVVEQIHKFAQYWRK

mTOR = mTOR (Homo sapiens (Human), UniProt P42345); assay: Selectivity against selected lipid kinases: mTOR; format: biochemical
PI3K-B = PI3K-B (Homo sapiens (Human), UniProt P42338); assay: Selectivity against selected lipid kinases: PI3K-B; format: biochemical
Sequence of PI3K-B (P42338 whole entry): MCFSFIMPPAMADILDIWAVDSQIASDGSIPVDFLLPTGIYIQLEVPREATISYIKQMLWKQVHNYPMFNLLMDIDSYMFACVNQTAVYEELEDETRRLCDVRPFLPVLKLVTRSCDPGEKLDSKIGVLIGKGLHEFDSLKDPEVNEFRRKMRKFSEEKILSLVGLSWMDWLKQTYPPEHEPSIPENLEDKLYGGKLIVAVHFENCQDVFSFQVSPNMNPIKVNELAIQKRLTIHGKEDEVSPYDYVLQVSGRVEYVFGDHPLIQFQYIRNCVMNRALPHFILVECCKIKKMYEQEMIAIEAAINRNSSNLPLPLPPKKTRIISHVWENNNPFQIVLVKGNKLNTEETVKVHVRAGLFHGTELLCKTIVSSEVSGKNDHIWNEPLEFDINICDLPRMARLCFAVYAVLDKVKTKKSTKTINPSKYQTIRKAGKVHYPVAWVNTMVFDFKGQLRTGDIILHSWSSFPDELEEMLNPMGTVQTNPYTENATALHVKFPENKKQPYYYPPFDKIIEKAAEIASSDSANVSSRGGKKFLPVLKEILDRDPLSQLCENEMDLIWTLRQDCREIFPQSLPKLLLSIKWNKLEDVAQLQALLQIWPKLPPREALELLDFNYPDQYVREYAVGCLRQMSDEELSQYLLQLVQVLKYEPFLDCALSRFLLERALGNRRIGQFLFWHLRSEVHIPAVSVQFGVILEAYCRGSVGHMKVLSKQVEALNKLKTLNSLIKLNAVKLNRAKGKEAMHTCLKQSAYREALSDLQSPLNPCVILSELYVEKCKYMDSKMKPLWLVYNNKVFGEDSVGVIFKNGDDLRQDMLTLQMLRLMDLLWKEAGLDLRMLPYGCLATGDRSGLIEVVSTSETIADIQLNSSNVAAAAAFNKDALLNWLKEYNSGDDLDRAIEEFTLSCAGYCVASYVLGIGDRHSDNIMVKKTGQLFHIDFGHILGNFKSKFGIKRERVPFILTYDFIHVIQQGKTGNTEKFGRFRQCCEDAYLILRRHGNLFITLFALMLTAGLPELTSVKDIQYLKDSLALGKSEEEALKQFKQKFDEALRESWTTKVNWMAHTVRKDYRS
Sequence of PI3K-B (P27986 whole entry partner): as the sequence (P27986 whole entry partner) above

Mouse PK Assays = conditions: in vivo; for clearance: read-out: PK-Mouse: IV Cl; for bioavailability: read-out: PK-Mouse: PO F (%)
[3] = IV 1 mg/kg, read-out: PK-Mouse: IV-AUC-0-last
[4] = PO 10 mg/kg, 20% DMSO/60% PEG400/20% Water, fed
[5] = PO 50 mg/kg, 20% DMSO/60% PEG400/20% Water, fed
[6] = PO 50 mg/kg, 20% DMSO/60% PEG400/20% Water, fed, read-out: PK-Mouse: PO AUC-0-last
[7] = PO 10 mg/kg, 30% SBE-beta-cyclodextrin, fed

Sequence of human full length PIK3CA Wild-type (p110α/p85α complex) (P42336 whole entry): as the sequence (P42336 whole entry H1047R) above, with R1047H counted along it
Sequence of human full length PIK3CA Wild-type (p110α/p85α complex) (P27986 whole entry partner): as the sequence (P27986 whole entry partner) above

Row | IC50 [1] | EC50 (T-47D) | IC50 [2] | IC50 (DNA-PK) | IC50 (PI3K-D) | IC50 (PI3K-G) | IC50 (Vps34) | IC50 (mTOR) | IC50 (PI3K-B) | clearance (Mouse PK Assays; IV 1 mg/kg) | AUC(0-t) (Mouse PK Assays; [3]) | Cmax (Mouse PK Assays; [5]) | AUC(0-t) (Mouse PK Assays; [6]) | Structure (SMILES) | also measured
1 | 1 to 5 µM | 1 to 5 µM | 0.5 to 1 µM | – | – | – | – | – | – | – | – | – | – | Cc1cc(C(C)Nc2ccccc2C(=O)O)c2oc(N3CCC4(CCCC4)CC3)cc(=O)c2c1 (stereo not drawn) [Example 96, 2-[1-[2-(8-Azaspiro[4.5]decan-8-yl)-6-methyl-4-oxo-chromen-8-yl]ethylamino]benzoic acid] | –
2 | 1 to 5 µM | 1 to 5 µM | < 0.5 µM | – | – | – | – | – | – | – | – | – | – | Cc1cc(C(C)Nc2ccccc2C(=O)O)c2oc(N3CCC(F)(F)CC3)cc(=O)c2c1 (single isomer, unassigned) [Example 130, 2-[1-[2-(4,4-Difluoro-1-piperidyl)-6-methyl-4-oxo-chromen-8-yl]ethylamino]benzoic acid] | –
3 | 5 to 10 µM | 5 to 15 µM | 0.5 to 1 µM | – | – | – | – | – | – | – | – | – | – | Cc1cc(C(C)Nc2ccccc2C(=O)O)c2oc(N3CCC4(CCCCO4)CC3)cc(=O)c2c1 (stereo not drawn) [Example 93, 2-[1-[6-Methyl-2-(1-oxa-9-azaspiro[5.5]undecan-9-yl)-4-oxo-chromen-8-yl]ethylamino]benzoic acid] | –
4 | – | > 24 µM | 1 to 5 µM | – | – | – | – | – | – | – | – | – | – | Cc1cc(C(C)Nc2ccccc2C(=O)O)c2oc(N3CCC4(CC3)CN(C)C(=O)O4)cc(=O)c2c1 (stereo not drawn) [Example 380, 2-[1-[6-Methyl-2-(3-methyl-2-oxo-1-oxa-3,8-diazaspiro[4.5]decan-8-yl)-4-oxo-chromen-8-yl]ethylamino]benzoic acid] | –
5 | – | 1 to 5 µM | – | 0.98 µM | > 10 µM | > 10 µM | 0.45 µM | 7.8 µM | 0.11 µM | 8.2 mL/min/kg | 2130 ng·h/mL | 5100 ng/mL | 31000 ng·h/mL | Cc1cc(C(C)Nc2ccccc2C(=O)O)c2oc(N3Cc4ccccc4C3)cc(=O)c2c1 (single isomer, unassigned) [Example 363, 2-[1-(2-Isoindolin-2-yl-6-methyl-4-oxo-chromen-8-yl)ethylamino]benzoic acid] | Cmax (Mouse PK Assays; [4]): 1300 ng/mL; AUC(0-t) (Mouse PK Assays; PO 10 mg/kg, 20% DMSO/60% PEG400/20% Water, fed, read-out: PK-Mouse: PO AUC-0-last): 18000 ng·h/mL; bioavailability (Mouse PK Assays; [4]): 87%; bioavailability (Mouse PK Assays; [5]): 33%
6 | – | 1 to 5 µM | – | > 10 µM | > 10 µM | > 10 µM | > 10 µM | > 10 µM | > 10 µM | 43 mL/min/kg | 343 ng·h/mL | 8.56 ng/mL | 48 ng·h/mL | Cc1cc(C(C)Nc2ccccc2C(=O)O)c2oc(N3CCC(C)(C)CC3)cc(=O)c2c1 (single isomer, unassigned) [Example 366, 2-[1-[2-(4,4-Dimethyl-1-piperidyl)-6-methyl-4-oxo-chromen-8-yl]ethylamino]benzoic acid] | Cmax (Mouse PK Assays; [7]): 350 ng/mL; AUC(0-t) (Mouse PK Assays; PO 10 mg/kg, 30% SBE-beta-cyclodextrin, fed, read-out: PK-Mouse: PO AUC-0-last): 3.9 ng·h/mL; bioavailability (Mouse PK Assays; [7]): 100%; Cmax (Mouse PK Assays; PO 100 mg/kg, 20% DMSO/60% PEG400/20% H2O, fed): 22.6 ng/mL; AUC(0-t) (Mouse PK Assays; PO 100 mg/kg, 20% DMSO/60% PEG400/20% H2O, fed, read-out: PK-Mouse: PO AUC-0-last): 76 ng·h/mL

Reference: patent US11649227B2, “Allosteric chromenone inhibitors of phosphoinositide 3-kinase (PI3K) for the treatment of disease” (Petra Pharma Corporation, priority 2020, dated 2023)
